Laboratory results from ChEMBL document CHEMBL1201862, “PubChem BioAssay data set” (2004).
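Following 48 hours of exposure in 96-well plates, responses at five concentrations were used to interpolate endpoints linearly. GI50 marks 50% less growth.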 Calls of active or inactive are those of the source. Rule as the data show it: active = GI50 up to about 1.1 µM and inactive = higher.

Experiments:
Assay in all cases: DTP human tumour cell line panel, 48 h
CCRF-CEM = tested on: CCRF-CEM
RPMI-8226 = tested on: RPMI-8226
DU-145 = tested on: DU-145
SW-620 = tested on: SW-620
OVCAR-8 = tested on: OVCAR-8
A549 = tested on: A549
NCI-H23 = tested on: NCI-H23
SK-MEL-2 = tested on: SK-MEL-2
A498 = tested on: A498
OVCAR-5 = tested on: OVCAR-5
NCI/ADR-RES = tested on: NCI/ADR-RES
ACHN = tested on: ACHN
SN12C = tested on: SN12C
LOX IMVI = tested on: LOX IMVI
OVCAR-4 = tested on: OVCAR-4
MDA-MB-231 = tested on: MDA-MB-231
CAKI-1 = tested on: CAKI-1
SNB-19 = tested on: SNB-19
NCI-H460 = tested on: NCI-H460
UACC-62 = tested on: UACC-62
MDA-N = tested on: MDA-N
TK-10 = tested on: TK-10
HT-29 = tested on: HT-29
U-251 = tested on: U-251
SNB-75 = tested on: SNB-75
M14 = tested on: M14
T47D = tested on: T47D
MOLT-4 = tested on: MOLT-4
IGROV-1 = tested on: IGROV-1
UACC-257 = tested on: UACC-257
786-0 = tested on: 786-0
HCT-15 = tested on: HCT-15
SK-MEL-28 = tested on: SK-MEL-28
RXF 393 = tested on: RXF 393
MCF7 = tested on: MCF7
HL-60 = tested on: HL-60
UO-31 = tested on: UO-31
KM12 = tested on: KM12
PC-3 = tested on: PC-3
Malme-3M = tested on: Malme-3M
OVCAR-3 = tested on: OVCAR-3
BT-549 = tested on: BT-549
HCC 2998 = tested on: HCC 2998
NCI-H226 = tested on: NCI-H226
Hs-578T = tested on: Hs-578T
HCT-116 = tested on: HCT-116
MDA-MB-435 = tested on: MDA-MB-435
SR = tested on: SR
SK-OV-3 = tested on: SK-OV-3
COLO 205 = tested on: COLO 205
HOP-62 = tested on: HOP-62
SF-295 = tested on: SF-295
SF-268 = tested on: SF-268
SK-MEL-5 = tested on: SK-MEL-5
K562 = tested on: K562
EKVX = tested on: EKVX
HOP-92 = tested on: HOP-92
NCI-H522 = tested on: NCI-H522
SF-539 = tested on: SF-539

`O=C1C(c2c(O)[nH]c3ccc(S(=O)(=O)O)cc23)=Nc2ccccc21` was tested, and the GI50 (CCRF-CEM) was > 100 µM (inactive), the GI50 (RPMI-8226) was > 100 µM (inactive) and the GI50 (DU-145) was > 100 µM (inactive). For the same compound, the GI50 (SW-620) was > 100 µM (inactive), the GI50 (OVCAR-8) was > 100 µM (inactive) and the GI50 (A549) was > 100 µM (inactive). The GI50 (NCI-H23) was > 100 µM (inactive), the GI50 (SK-MEL-2) was > 100 µM (inactive) and the GI50 (A498) was > 100 µM (inactive). For the same compound, the GI50 (OVCAR-5) was > 100 µM (inactive), the GI50 (NCI/ADR-RES) was > 100 µM (inactive) and the GI50 (ACHN) was > 100 µM (inactive). For the same compound, the GI50 (SN12C) was > 100 µM (inactive), the GI50 (LOX IMVI) was > 100 µM (inactive) and the GI50 (OVCAR-4) was 94.4 µM (inactive). The GI50 (MDA-MB-231) was > 100 µM (inactive), the GI50 (CAKI-1) was > 100 µM (inactive) and the GI50 (SNB-19) was > 100 µM (inactive). The GI50 (NCI-H460) was > 100 µM (inactive), the GI50 (UACC-62) was > 100 µM (inactive) and the GI50 (MDA-N) was > 100 µM (inactive). The GI50 (TK-10) was > 100 µM (inactive), the GI50 (HT-29) was > 100 µM (inactive) and the GI50 (U-251) was > 100 µM (inactive). For the same compound, the GI50 (SNB-75) was > 100 µM (inactive), the GI50 (M14) was > 100 µM (inactive) and the GI50 (T47D) was 72.1 µM (inactive). The GI50 (MOLT-4) was > 100 µM (inactive), the GI50 (IGROV-1) was > 100 µM (inactive) and the GI50 (UACC-257) was > 100 µM (inactive). For the same compound, the GI50 (786-0) was > 100 µM (inactive), the GI50 (HCT-15) was over 100 µM and the GI50 (SK-MEL-28) was > 100 µM (inactive). For the same compound, the GI50 (RXF 393) was > 100 µM (inactive), the GI50 (MCF7) was 53.5 µM (inactive) and the GI50 (HL-60) was > 100 µM (inactive). The GI50 (UO-31) was > 100 µM (inactive), the GI50 (KM12) was > 100 µM (inactive) and the GI50 (PC-3) was > 100 µM (inactive). For the same compound, the GI50 (Malme-3M) was > 100 µM (inactive), the GI50 (OVCAR-3) was > 100 µM (inactive) and the GI50 (BT-549) was > 100 µM (inactive). The GI50 (HCC 2998) was > 100 µM (inactive), the GI50 (NCI-H226) was > 100 µM (inactive) and the GI50 (Hs-578T) was > 100 µM (inactive). The GI50 (HCT-116) was > 100 µM (inactive), the GI50 (MDA-MB-435) was > 100 µM (inactive) and the GI50 (SR) was > 100 µM (inactive). The GI50 (SK-OV-3) was > 100 µM (inactive), the GI50 (COLO 205) was > 100 µM (inactive) and the GI50 (HOP-62) was > 100 µM (inactive). The GI50 (SF-295) was > 100 µM (inactive), the GI50 (SF-268) was > 100 µM (inactive) and the GI50 (SK-MEL-5) was > 100 µM (inactive). The GI50 (K562) was > 100 µM (inactive), the GI50 (EKVX) was > 100 µM (inactive) and the GI50 (HOP-92) was > 100 µM (inactive). For the same compound, the GI50 (NCI-H522) was > 100 µM (inactive).
For `CC(=O)N1CCn2c1nc1cc(Cl)ccc12`, the GI50 (CCRF-CEM) was > 100 µM (inactive), the GI50 (DU-145) was 33.4 µM (inactive) and the GI50 (SW-620) was > 100 µM (inactive). The GI50 (OVCAR-8) was 74.3 µM (inactive), the GI50 (A549) was > 100 µM (inactive) and the GI50 (SK-MEL-2) was 26.1 µM (inactive). The GI50 (A498) was > 100 µM (inactive), the GI50 (OVCAR-5) was > 100 µM (inactive) and the GI50 (NCI/ADR-RES) was > 100 µM (inactive). The GI50 (ACHN) was 34.4 µM (inactive), the GI50 (SN12C) was > 100 µM (inactive) and the GI50 (LOX IMVI) was 39.2 µM (inactive). For the same compound, the GI50 (OVCAR-4) was > 100 µM (inactive), the GI50 (MDA-MB-231) was 34.5 µM (inactive) and the GI50 (CAKI-1) was > 100 µM (inactive). The GI50 (SNB-19) was 69 µM (inactive), the GI50 (NCI-H460) was 77.6 µM (inactive) and the GI50 (UACC-62) was 33.5 µM (inactive). For the same compound, the GI50 (MDA-N) was > 100 µM (inactive), the GI50 (TK-10) was 63.1 µM (inactive) and the GI50 (HT-29) was > 100 µM (inactive). The GI50 (U-251) was 37.8 µM (inactive), the GI50 (M14) was > 100 µM (inactive) and the GI50 (T47D) was 21.4 µM (inactive). The GI50 (MOLT-4) was > 100 µM (inactive), the GI50 (IGROV-1) was 37.6 µM (inactive) and the GI50 (UACC-257) was > 100 µM (inactive). The GI50 (786-0) was > 100 µM (inactive), the GI50 (HCT-15) was 35.2 µM and the GI50 (SK-MEL-28) was > 100 µM (inactive). For the same compound, the GI50 (RXF 393) was 20.8 µM (inactive), the GI50 (MCF7) was > 100 µM (inactive) and the GI50 (HL-60) was > 100 µM (inactive). For the same compound, the GI50 (KM12) was > 100 µM (inactive), the GI50 (SF-539) was 26.4 µM (inactive) and the GI50 (PC-3) was 47.5 µM (inactive). For the same compound, the GI50 (Malme-3M) was > 100 µM (inactive), the GI50 (OVCAR-3) was 95.1 µM (inactive) and the GI50 (BT-549) was > 100 µM (inactive). The GI50 (HCC 2998) was > 100 µM (inactive), the GI50 (NCI-H226) was 94.8 µM (inactive) and the GI50 (Hs-578T) was 31.4 µM (inactive). The GI50 (HCT-116) was 44 µM (inactive), the GI50 (MDA-MB-435) was > 100 µM (inactive) and the GI50 (SR) was > 100 µM (inactive). For the same compound, the GI50 (SK-OV-3) was 25.1 µM (inactive), the GI50 (COLO 205) was > 100 µM (inactive) and the GI50 (HOP-62) was 19.4 µM (inactive). For the same compound, the GI50 (SF-295) was 47.8 µM (inactive), the GI50 (SF-268) was 32.2 µM (inactive) and the GI50 (SK-MEL-5) was > 100 µM (inactive). For the same compound, the GI50 (K562) was > 100 µM (inactive), the GI50 (EKVX) was 54.3 µM (inactive) and the GI50 (HOP-92) was 24.9 µM (inactive). The GI50 (NCI-H522) was 42.5 µM (inactive).
